pIC50: −log10 of the molar value.
Assays:
BTK = target: T1, BTK (Homo sapiens, UniProt Q06187); assay: Off-chip Mobility Shift Assay, kinase inhibition; type: biochemical; conditions: recombinant BTK; for inhibition at 0.001 µM: at 1 nM; for inhibition at 0.01 µM: at 10 nM
T1 construct: purchased Carna Biosciences, Inc

SRC = target: T2, SRC (Homo sapiens, UniProt P12931); assay: Off-chip Mobility Shift Assay, kinase inhibition; type: biochemical; conditions: recombinant SRC; for inhibition at 0.001 µM: at 1 nM; for inhibition at 0.01 µM: at 10 nM
T2 construct: purchased Carna Biosciences, Inc

ARG = target: T3, ARG (Homo sapiens, UniProt P42684); assay: Off-chip Mobility Shift Assay, kinase inhibition; type: biochemical; conditions: recombinant ARG; for inhibition at 0.01 µM: at 10 nM, read-out: inhibition
T3 construct: purchased Carna Biosciences, Inc

FMS = target: T4, FMS (Homo sapiens, UniProt P07333); assay: Off-chip Mobility Shift Assay, kinase inhibition; type: biochemical; conditions: recombinant FMS; for inhibition at 0.001 µM: at 1 nM; for inhibition at 0.01 µM: at 10 nM
T4 construct: purchased Carna Biosciences, Inc

DDR2 = target: T5, DDR2 (Homo sapiens, UniProt Q16832); assay: Off-chip Mobility Shift Assay, kinase inhibition; type: biochemical; conditions: recombinant DDR2; for inhibition at 0.01 µM: at 10 nM, read-out: inhibition
T5 construct: purchased Carna Biosciences, Inc
T5 sequence (Q16832 22-855): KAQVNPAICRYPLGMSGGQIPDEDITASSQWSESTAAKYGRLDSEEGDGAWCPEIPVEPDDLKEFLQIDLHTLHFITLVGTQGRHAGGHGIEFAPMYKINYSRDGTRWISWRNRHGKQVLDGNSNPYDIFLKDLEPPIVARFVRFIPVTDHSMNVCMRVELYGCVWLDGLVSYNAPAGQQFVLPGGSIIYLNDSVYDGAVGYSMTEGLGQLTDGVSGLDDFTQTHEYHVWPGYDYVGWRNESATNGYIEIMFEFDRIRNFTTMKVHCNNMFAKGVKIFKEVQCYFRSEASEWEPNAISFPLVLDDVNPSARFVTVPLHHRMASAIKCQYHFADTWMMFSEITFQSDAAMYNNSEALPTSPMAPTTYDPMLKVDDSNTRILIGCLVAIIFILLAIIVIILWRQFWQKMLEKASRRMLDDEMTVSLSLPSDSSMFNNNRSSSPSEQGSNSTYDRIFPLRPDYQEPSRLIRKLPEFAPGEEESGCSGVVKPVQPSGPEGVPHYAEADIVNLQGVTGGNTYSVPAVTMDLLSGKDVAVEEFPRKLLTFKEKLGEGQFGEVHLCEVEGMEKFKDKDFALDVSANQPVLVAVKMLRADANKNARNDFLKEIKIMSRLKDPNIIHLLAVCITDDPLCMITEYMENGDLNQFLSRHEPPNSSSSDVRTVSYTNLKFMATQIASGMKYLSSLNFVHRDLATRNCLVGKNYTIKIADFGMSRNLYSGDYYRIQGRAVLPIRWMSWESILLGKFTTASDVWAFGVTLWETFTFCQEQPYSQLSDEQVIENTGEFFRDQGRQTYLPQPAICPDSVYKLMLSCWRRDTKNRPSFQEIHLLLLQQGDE

BLK = target: T6, BLK (Homo sapiens, UniProt P51451); assay: Off-chip Mobility Shift Assay, kinase inhibition; type: biochemical; conditions: recombinant BLK; for inhibition at 0.001 µM: at 1 nM; for inhibition at 0.01 µM: at 10 nM
T6 construct: purchased Carna Biosciences, Inc

PDGFRα = target: T7, PDGFRα (Homo sapiens, UniProt P16234); assay: Off-chip Mobility Shift Assay, kinase inhibition; type: biochemical; conditions: recombinant PDGFRα; for inhibition at 0.001 µM: at 1 nM; for inhibition at 0.01 µM: at 10 nM, read-out: inhibition
T7 construct: purchased Carna Biosciences, Inc

LCK = target: T8, LCK (Homo sapiens, UniProt P06239); assay: Off-chip Mobility Shift Assay, kinase inhibition; type: biochemical; conditions: recombinant LCK; for inhibition at 0.001 µM: at 1 nM; for inhibition at 0.01 µM: at 10 nM
T8 construct: purchased Carna Biosciences, Inc

FGR = target: T9, FGR (Homo sapiens, UniProt P09769); assay: Off-chip Mobility Shift Assay, kinase inhibition; type: biochemical; conditions: recombinant FGR; for inhibition at 0.001 µM: at 1 nM; for inhibition at 0.01 µM: at 10 nM, read-out: inhibition
T9 construct: purchased Carna Biosciences, Inc

BMX = target: T10, BMX (Homo sapiens, UniProt P51813); assay: Off-chip Mobility Shift Assay, kinase inhibition; type: biochemical; conditions: recombinant BMX; for inhibition at 0.001 µM: at 1 nM; for inhibition at 0.01 µM: at 10 nM
T10 construct: purchased Carna Biosciences, Inc
T10 sequence (P51813 1-675): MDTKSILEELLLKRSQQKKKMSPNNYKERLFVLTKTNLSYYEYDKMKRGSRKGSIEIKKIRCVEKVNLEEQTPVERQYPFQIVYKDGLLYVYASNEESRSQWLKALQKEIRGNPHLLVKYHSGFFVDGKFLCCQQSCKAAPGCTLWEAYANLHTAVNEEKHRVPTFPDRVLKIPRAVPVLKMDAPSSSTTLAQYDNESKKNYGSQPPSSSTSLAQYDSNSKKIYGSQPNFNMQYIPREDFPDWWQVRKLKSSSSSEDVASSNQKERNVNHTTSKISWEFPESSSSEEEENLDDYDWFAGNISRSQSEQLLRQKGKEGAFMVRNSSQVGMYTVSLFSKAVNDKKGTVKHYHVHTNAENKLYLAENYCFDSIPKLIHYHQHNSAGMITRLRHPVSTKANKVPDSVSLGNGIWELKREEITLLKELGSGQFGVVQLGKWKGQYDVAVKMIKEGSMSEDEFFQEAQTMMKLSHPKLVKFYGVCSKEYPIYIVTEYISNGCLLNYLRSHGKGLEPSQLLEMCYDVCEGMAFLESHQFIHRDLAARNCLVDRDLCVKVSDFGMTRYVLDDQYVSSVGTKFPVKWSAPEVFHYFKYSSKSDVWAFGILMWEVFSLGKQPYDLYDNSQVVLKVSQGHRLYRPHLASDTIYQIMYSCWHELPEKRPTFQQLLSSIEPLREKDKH

[1] = tested on: battery of selected protein kinases; assay: In vitro screen of a battery of selected protein kinases (summary statement); type: biochemical; conditions: BTK, BMX, ABL, ABL(E255K), SRC, ACK, ARG, BLK, DDR2, EPHA, FGR, FMS, FRK, FYN, HCK, LCK, LYN, PDGFRα, PDGFRβ, YES, PIK3CA/PIK3R1, among others
PDGFRβ = target: T11, PDGFRβ (Homo sapiens, UniProt P09619); assay: Off-chip Mobility Shift Assay, kinase inhibition; type: biochemical; conditions: recombinant PDGFRβ; for inhibition at 0.001 µM: at 1 nM; for inhibition at 0.01 µM: at 10 nM, read-out: inhibition
T11 construct: purchased Carna Biosciences, Inc

SU-DHL-4 = assay: Cell inhibition assay (PrestoBlue, 48 h); type: cell-based; conditions: Homo sapiens, SU-DHL-4, 48 h, SU-DHL-4 diffuse large B-cell lymphoma cells, read-out: IC50, inhibition of growth
YES = target: T12, YES (Homo sapiens, UniProt P07947); assay: Off-chip Mobility Shift Assay, kinase inhibition; type: biochemical; conditions: recombinant YES; for inhibition at 0.001 µM: at 1 nM; for inhibition at 0.01 µM: at 10 nM
T12 construct: purchased Carna Biosciences, Inc

LYNa = target: T13, LYNa (Homo sapiens, UniProt P07948); assay: Off-chip Mobility Shift Assay, kinase inhibition; type: biochemical; conditions: recombinant LYNa; for inhibition at 0.001 µM: at 1 nM; for inhibition at 0.01 µM: at 10 nM, read-out: inhibition
T13 construct: purchased Carna Biosciences, Inc

T4 sequence (P07333 20-972): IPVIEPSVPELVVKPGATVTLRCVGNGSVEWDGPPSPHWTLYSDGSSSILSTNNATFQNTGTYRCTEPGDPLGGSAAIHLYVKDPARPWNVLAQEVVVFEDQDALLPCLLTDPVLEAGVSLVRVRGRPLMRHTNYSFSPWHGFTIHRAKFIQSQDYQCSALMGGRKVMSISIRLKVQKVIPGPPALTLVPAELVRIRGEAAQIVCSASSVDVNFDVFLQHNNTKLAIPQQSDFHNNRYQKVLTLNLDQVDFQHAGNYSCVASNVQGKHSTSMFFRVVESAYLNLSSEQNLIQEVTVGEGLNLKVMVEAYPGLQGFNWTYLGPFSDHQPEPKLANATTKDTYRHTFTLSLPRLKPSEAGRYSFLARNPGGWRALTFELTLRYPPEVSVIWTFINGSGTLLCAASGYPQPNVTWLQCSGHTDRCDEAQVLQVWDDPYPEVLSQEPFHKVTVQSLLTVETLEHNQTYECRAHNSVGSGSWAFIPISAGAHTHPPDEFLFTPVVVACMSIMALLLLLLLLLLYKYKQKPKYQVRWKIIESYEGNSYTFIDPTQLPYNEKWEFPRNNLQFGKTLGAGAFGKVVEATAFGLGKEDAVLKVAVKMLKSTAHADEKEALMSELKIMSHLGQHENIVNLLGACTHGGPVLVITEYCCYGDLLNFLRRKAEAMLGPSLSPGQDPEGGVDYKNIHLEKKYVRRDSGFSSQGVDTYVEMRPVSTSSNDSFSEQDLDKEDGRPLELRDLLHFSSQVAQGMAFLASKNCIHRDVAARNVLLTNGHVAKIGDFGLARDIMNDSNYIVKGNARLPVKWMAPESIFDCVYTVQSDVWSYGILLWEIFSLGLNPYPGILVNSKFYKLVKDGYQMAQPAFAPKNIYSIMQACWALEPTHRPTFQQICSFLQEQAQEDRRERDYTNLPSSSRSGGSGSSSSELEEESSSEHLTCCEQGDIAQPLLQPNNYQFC
T3 sequence (P42684 whole entry): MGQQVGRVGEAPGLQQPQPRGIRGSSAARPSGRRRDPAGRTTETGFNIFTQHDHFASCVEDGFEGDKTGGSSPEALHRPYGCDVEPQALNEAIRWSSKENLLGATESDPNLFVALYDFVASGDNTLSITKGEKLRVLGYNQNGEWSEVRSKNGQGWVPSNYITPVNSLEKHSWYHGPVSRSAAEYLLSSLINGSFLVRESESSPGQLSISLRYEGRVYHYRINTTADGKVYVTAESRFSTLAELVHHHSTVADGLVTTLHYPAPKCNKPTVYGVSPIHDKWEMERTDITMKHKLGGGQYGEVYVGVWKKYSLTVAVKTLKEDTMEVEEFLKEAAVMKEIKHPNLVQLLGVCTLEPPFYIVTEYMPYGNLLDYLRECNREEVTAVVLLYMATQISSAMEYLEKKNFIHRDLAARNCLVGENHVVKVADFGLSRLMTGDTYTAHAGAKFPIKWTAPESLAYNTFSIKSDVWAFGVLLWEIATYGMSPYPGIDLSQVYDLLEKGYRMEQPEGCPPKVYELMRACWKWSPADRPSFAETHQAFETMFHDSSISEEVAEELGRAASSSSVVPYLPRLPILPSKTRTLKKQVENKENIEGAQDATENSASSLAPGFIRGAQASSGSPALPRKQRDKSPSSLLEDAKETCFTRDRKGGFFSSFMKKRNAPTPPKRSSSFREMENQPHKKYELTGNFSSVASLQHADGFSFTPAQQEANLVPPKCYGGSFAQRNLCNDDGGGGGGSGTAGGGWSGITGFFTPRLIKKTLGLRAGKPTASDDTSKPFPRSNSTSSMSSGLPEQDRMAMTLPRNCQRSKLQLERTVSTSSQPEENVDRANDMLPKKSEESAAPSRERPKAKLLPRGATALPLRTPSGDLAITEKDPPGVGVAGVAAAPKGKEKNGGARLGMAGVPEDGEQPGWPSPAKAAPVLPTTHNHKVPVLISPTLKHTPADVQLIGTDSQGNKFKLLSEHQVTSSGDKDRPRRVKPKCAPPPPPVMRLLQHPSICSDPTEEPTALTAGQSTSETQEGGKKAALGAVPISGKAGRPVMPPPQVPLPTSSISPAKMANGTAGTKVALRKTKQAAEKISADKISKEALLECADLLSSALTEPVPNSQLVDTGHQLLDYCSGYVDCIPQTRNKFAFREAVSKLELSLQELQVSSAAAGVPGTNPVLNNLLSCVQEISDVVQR
T8 sequence (P06239 whole entry): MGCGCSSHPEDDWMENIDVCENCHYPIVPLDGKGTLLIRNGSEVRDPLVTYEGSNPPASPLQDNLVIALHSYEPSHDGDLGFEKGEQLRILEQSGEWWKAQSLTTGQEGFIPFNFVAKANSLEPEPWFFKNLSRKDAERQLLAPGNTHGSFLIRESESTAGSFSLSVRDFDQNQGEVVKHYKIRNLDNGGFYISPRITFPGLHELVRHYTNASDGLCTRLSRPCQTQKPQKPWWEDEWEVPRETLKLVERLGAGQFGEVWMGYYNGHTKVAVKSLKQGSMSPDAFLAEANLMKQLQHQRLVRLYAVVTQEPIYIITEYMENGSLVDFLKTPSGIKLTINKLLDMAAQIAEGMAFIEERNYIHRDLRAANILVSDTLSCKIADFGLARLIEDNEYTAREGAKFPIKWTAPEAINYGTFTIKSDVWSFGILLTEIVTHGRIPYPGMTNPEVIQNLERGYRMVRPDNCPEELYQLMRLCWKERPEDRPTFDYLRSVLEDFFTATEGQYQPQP
T11 sequence (P09619 33-1106): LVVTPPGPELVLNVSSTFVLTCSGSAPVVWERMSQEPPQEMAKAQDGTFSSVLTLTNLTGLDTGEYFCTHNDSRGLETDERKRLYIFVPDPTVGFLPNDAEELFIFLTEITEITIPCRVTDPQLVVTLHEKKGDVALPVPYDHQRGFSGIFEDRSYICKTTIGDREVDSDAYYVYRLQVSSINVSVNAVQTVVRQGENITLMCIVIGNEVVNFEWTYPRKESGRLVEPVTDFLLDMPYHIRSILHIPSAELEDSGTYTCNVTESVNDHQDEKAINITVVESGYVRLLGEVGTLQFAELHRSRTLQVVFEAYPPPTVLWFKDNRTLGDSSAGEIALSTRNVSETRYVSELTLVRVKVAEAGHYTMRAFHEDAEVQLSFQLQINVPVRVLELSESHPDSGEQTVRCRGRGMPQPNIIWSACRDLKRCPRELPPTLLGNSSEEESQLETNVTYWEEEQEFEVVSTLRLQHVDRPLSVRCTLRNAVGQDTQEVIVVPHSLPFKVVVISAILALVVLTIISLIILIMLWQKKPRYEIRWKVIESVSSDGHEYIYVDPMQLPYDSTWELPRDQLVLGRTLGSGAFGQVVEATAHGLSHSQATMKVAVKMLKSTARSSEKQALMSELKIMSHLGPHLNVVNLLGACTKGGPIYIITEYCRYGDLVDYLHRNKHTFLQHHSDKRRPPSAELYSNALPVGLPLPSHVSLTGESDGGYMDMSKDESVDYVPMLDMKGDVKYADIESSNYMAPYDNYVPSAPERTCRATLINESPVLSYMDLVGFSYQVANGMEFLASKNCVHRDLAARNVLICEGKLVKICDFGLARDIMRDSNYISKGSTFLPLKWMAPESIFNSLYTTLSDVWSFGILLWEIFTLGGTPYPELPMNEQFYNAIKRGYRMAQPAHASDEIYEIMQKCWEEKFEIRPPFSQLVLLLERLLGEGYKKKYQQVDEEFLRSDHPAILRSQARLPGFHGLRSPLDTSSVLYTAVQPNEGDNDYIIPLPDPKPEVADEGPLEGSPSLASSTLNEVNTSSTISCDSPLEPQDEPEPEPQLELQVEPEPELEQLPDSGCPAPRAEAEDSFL
T12 sequence (P07947 whole entry): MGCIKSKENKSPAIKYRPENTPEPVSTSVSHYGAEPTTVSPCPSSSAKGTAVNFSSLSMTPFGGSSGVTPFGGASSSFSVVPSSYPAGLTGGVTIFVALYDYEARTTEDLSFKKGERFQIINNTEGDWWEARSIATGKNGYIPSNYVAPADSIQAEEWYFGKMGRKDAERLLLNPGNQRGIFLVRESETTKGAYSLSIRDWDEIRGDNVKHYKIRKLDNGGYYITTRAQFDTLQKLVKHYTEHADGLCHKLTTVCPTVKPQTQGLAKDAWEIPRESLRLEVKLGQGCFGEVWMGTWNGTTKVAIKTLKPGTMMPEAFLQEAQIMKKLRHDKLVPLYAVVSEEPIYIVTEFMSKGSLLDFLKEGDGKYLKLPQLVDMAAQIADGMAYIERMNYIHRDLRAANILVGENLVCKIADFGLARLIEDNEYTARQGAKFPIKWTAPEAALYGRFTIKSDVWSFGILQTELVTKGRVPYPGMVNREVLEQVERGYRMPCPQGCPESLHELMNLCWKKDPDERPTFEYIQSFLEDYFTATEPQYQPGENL
T2 sequence (P12931 whole entry): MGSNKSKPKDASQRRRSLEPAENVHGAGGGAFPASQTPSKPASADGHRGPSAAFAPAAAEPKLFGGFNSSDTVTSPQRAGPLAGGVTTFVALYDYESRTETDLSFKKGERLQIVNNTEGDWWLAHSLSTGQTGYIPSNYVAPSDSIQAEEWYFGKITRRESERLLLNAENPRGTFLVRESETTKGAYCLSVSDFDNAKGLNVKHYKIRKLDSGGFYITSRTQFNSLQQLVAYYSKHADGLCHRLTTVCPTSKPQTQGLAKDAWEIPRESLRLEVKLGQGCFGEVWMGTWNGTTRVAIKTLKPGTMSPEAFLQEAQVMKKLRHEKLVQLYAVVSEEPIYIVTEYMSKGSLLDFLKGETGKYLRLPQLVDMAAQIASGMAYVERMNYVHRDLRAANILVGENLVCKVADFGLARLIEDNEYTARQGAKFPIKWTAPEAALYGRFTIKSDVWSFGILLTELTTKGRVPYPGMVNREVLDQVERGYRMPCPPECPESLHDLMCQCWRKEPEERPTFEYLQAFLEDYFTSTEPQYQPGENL

## [2H]c1cc(C)c(NC(=O)c2cnc(Nc3cc(N4CCCCC4)nc(C)n3)s2)c(Cl)c1 [Compound I, N-(2-chloro-4-deuterio-6-methyl-phenyl)-2-[[2-methyl-6-(1-piperidyl)pyrimidin-4-yl]amino]thiazole-5-carboxamide]
BTK
  inhibition at 0.001 µM: > 50%
  inhibition at 0.01 µM: > 50%
SRC
  inhibition at 0.001 µM: > 50%
  inhibition at 0.01 µM: > 50%
ARG; at 1 nM
  inhibition at 0.001 µM: > 50%
ARG
  inhibition at 0.01 µM: > 50%
FMS
  inhibition at 0.001 µM: > 50%
  inhibition at 0.01 µM: > 50%
DDR2; at 1 nM
  inhibition at 0.001 µM: > 50%
DDR2
  inhibition at 0.01 µM: > 50%
BLK
  inhibition at 0.001 µM: > 50%
  inhibition at 0.01 µM: > 50%
PDGFRα
  inhibition at 0.001 µM: > 50%
  inhibition at 0.01 µM: > 50%
LCK
  inhibition at 0.001 µM: > 50%
  inhibition at 0.01 µM: > 50%
FGR
  inhibition at 0.001 µM: > 50%
  inhibition at 0.01 µM: > 50%
BMX
  inhibition at 0.001 µM: > 50%
  inhibition at 0.01 µM: > 50%
[1]
  activity to inhibit kinases: potent activity
PDGFRβ
  inhibition at 0.001 µM: > 50%
  inhibition at 0.01 µM: > 50%
SU-DHL-4
  pIC50: > 7.70
YES
  inhibition at 0.001 µM: > 50%
  inhibition at 0.01 µM: > 50%
LYNa
  inhibition at 0.001 µM: > 50%
  inhibition at 0.01 µM: > 50%

## [2H]c1cc(C)c(NC(=O)c2cnc(Nc3cc(N4CCC(O)CC4)nc(C)n3)s2)c(Cl)c1 [Compound II, N-(2-chloro-4-deuterio-6-methyl-phenyl)-2-[[6-(4-hydroxy-1-piperidyl)-2-methyl-pyrimidin-4-yl]amino]thiazole-5-carboxamide]
BTK
  inhibition at 0.001 µM: > 50%
  inhibition at 0.01 µM: > 50%
SRC
  inhibition at 0.001 µM: > 50%
  inhibition at 0.01 µM: > 50%
ARG
  inhibition at 0.01 µM: > 50%
FMS
  inhibition at 0.001 µM: > 50%
  inhibition at 0.01 µM: > 50%
DDR2
  inhibition at 0.01 µM: > 50%
BLK
  inhibition at 0.001 µM: > 50%
  inhibition at 0.01 µM: > 50%
PDGFRα
  inhibition at 0.001 µM: < 50%
  inhibition at 0.01 µM: > 50%
PDGFRα; at 100 nM
  inhibition at 0.1 µM: > 50%
LCK
  inhibition at 0.001 µM: > 50%
  inhibition at 0.01 µM: > 50%
FGR
  inhibition at 0.001 µM: > 50%
  inhibition at 0.01 µM: > 50%
BMX
  inhibition at 0.001 µM: > 50%
  inhibition at 0.01 µM: > 50%
[1]
  activity to inhibit kinases: potent activity
PDGFRβ
  inhibition at 0.001 µM: < 50%
  inhibition at 0.01 µM: > 50%
PDGFRβ; at 100 nM
  inhibition at 0.1 µM: > 50%
SU-DHL-4
  pIC50: > 7.70
YES
  inhibition at 0.001 µM: > 50%
  inhibition at 0.01 µM: > 50%
LYNa
  inhibition at 0.001 µM: > 50%
  inhibition at 0.01 µM: > 50%

Source: patent US10479786B2, “Protein kinase inhibitors” (Princeton Drug Discovery Inc, priority 2016, dated 2019)
